# Reference: patent US5589510A, “Method for inhibiting retroviral infection by administering a naphthalenesulfonic acid compound” (priority 1995, dated 1996)
# Like-named read-outs stand apart in the source and are kept apart here.
# Key:
# [1] = LD50, intravenous, mice; assay type: in vivo; details: mouse, in vivo, female mice, mortalities within 1 week
# Description: The test material was administered intravenously to 5 female mice in five increasing doses. Mortalities were recorded within 1 week, and the LD50 was determined with the aid of statistical calculations.
# [2] = system: HIV-1 RF; assay: Antiviral assay, Experimental Protocol II (virus incubated with compound before cells); assay type: cell-based; details: Human immunodeficiency virus 1, 240 h, 10% FCS, p24 ELISA, read-out: % Inhibition (after day 10); for inhibition at 1.25 µg/mL: 1.25 μg/ml; for inhibition at 2.5 µg/mL: 2.5 μg/ml; for inhibition at 5 µg/mL: 5 μg/ml
# [3] = system: TA98, TA1535, TA1537, TA1538, TA100 and W2P2uvr; assay: Ames Test (in the presence of S9); assay type: cell-based, Salmonella typhimurium
# Excerpt: Six Salmonella typhimuriumstrai strains, TA98, TA1535, TA1537, TA1538, TA100 and W2P2uvr were used in this experiment.
# [4] = system: HIV-1 patient isolate IH; assay: Inhibition of HIV-1 patient isolate IH in PBMCs; assay type: cell-based; details: Human immunodeficiency virus 1, PBMC, 288 h, read-out: % Inhibition (after day 12); for inhibition at 2.5 µg/mL: 2.5 μg/ml; for inhibition at 5 µg/mL: 5 μg/ml; for inhibition at 10 µg/mL: 10 μg/ml; for inhibition at 20 µg/mL: 20 μg/ml
# Description: (§1) The inhibitory effects of additional naphthalenesulfonic acid compounds were tested as follows: Experimental Details:
# PBMCs were activated for 48 hours in conditioned medium containing PHA at a concentration of 4 μg/ml. […] The test compound, previously dissolved in a glucose solution (1 mg/ml), was then added to each of the wells to achieve the appropriate concentration. The plate was then incubated overnight (about 15 hours) after which 50 μl of cell-free HIV-1 patient isolate was added to each well. The plates were incubated for further 6 to 8 hours after which all free floating solution of virus was washed off. Washing was performed four times.
# (§2) After removal of the virus, all cultures were resuspended in conditioned medium containing 10% FCS.
# (§3) For control experiments virus growth was monitored in either 10% FCS or 50% FCS throughout the observation period (15 days).
# [5] = system: HIV-1 RF; assay: Antiviral assay, Experimental Protocol I (compound added after infection); assay type: cell-based; details: Human immunodeficiency virus 1, 240 h, p24 ELISA, read-out: % Inhibition (after day 10); for inhibition at 0.6 µg/mL: 0.6 μg/ml; for inhibition at 1.25 µg/mL: 1.25 μg/ml; for inhibition at 2.5 µg/mL: 2.5 μg/ml; for inhibition at 5 µg/mL: 5 μg/ml
# Description: HIV-1 infectivity studies were conducted in CEM, H9, MT2 cells and peripheral blood mononuclear cells (PBMC). CEM, H9 and MT2 were grown in RPMI1640 medium, 10% heat-inactivated fetal bovine serum (FBS). PBMCs were stimulated with 4 μg/ml PHA for 48 hours in RPMI1640, 10% FBS before HIV-1 infection. After HIV-1 infection, PBMCs were maintained in RPMI 1640, 10% FBS and 10 10 units/ml IL-2. The major HIV-1 isolates used were MN, IIIB, SF2, AZT-sensitive A018 and AZT-resistant A018 provided by NIH AIDS research and reference reagent program. Two major antiviral assays were developed to determine the antiviral activities of the compounds of this invention (as inhibitors).
# I. The cells were infected with HIV-1 RF or IIIB at an infectivity multiplicity (moi) of 0.001 in the absence of a compound of this invention for one hour. HIV-1 infected cells were washed once with PBS, resuspended in RPMI1640, 10% FBS medium and distributed in 24-well culture dishes (5×10^5 cells per well) in the presence of a compound of this invention as inhibitor. […]
# [6] = biological target: T1, recombinant reverse transcriptase (RT) (Human immunodeficiency virus type 1 group M subtype B, UniProt P04585); assay: Reverse transcriptase inhibition assay; assay type: biochemical, HIV-1
# T1 construct: purchased Worthington Biochemical Corporation
# Description: Inhibition of recombinant reverse transcriptase (RT) was performed by using commercially available Boehringer Mannheim RT assay kit (Cat. No. 1468 120) based on incorporation of digoxigenin labeled dUTP into DNA. Recombinant enzyme from HIV-1 was purchased from Worthington Biochemical Corporation. The level of anti-RT activity in the sample was determined by measurement of absorbance using an ELISA reader at 405 nm.
# [7] = system: HIV-1 patient isolate NIH 900285; assay: Inhibition of HIV-1 patient isolate NIH 900285 in PBMCs; assay type: cell-based; details: Human immunodeficiency virus 1, PBMC, 288 h, 10% FCS, read-out: % Inhibition (after day 12)
# Description: as §1
# PBMCs were activated for 48 hours in conditioned medium containing PHA at a concentration of 4 μg/ml. Thereafter 10^6 cells were plated in each of the 24 well plates containing 10% FCS or 50% FCS. The test compound, previously dissolved in a glucose solution (1 mg/ml), was then added to each of the wells to achieve the appropriate concentration. The plate was then incubated overnight (about 15 hours) after which 50 μl of cell-free HIV-1 patient isolate was added to each well. The plates were incubated for further 6 to 8 hours after which all free floating solution of virus was washed off. Washing was performed four times.
# as §2, §3
# [8] = the higher the value, the higher the mutagenicity
Compound,LD50 at 168 h [1] [mg/kg],inhibition at 1.25 µg/mL [2] [%],inhibition at 2.5 µg/mL [2] [%],inhibition at 5 µg/mL [2] [%],Ames Test result [3],inhibition at 1.25 µg/mL ([5]; 10% FCS) [%],inhibition at 2.5 µg/mL ([5]; 10% FCS) [%],inhibition at 5 µg/mL ([5]; 10% FCS) [%],inhibition at 0.5 µM [6] [%],further results
CCC(C)(C)c1ccc(OCC(=O)Nc2cc(S(=O)(=O)O)cc3cc(S(=O)(=O)O)c(N=Nc4cc(OC)c(N=Nc5c(S(=O)(=O)O)cc6cc(S(=O)(=O)O)cc(NC(=O)c7ccc(Cl)cc7Cl)c6c5O)cc4OC)c(O)c23)c(C(C)(C)CC)c1 [Compound 15],150,61,89,100,Negative,,,,,
COc1cc(N=Nc2c(S(=O)(=O)O)cc3cc(S(=O)(=O)O)cc(NC(=O)c4ccc(Cl)cc4Cl)c3c2O)c(OC)cc1N=Nc1c(S(=O)(=O)O)cc2cc(S(=O)(=O)O)cc(NC(=O)c3ccc(Cl)cc3Cl)c2c1O [Compound 11],160,,,,Positive,100,100,100,30,"inhibition at 2.5 µg/mL ([4]; 10% FCS): 0%; inhibition at 5 µg/mL ([4]; 10% FCS): 0%; inhibition at 10 µg/mL ([4]; 10% FCS): 100%; inhibition at 20 µg/mL ([4]; 10% FCS): 100%; inhibition at 2.5 µg/mL ([4]; 50% Human Serum): 0%; inhibition at 5 µg/mL ([4]; 50% Human Serum): 0%; inhibition at 10 µg/mL ([4]; 50% Human Serum): 31%; inhibition at 20 µg/mL ([4]; 50% Human Serum): 100%; Ames Test, specific mutagenic activity [3, 8]: 0.02 colony no/μg; inhibition at 0.3 µg/mL ([5]; 10% FCS, 0.3 μg/ml): 99%; inhibition at 0.6 µg/mL ([5]; 10% FCS): 100%; inhibition at 0.6 µg/mL ([5]; 50% Human Serum): 55%; inhibition at 1.25 µg/mL ([5]; 50% Human Serum): 87%; inhibition at 2.5 µg/mL ([5]; 50% Human Serum): 93%; inhibition at 5 µg/mL ([5]; 50% Human Serum): 98%"
COc1cc(N=Nc2c(S(=O)(=O)O)cc3cc(S(=O)(=O)O)cc(NC(=O)c4cc(Cl)ccc4Cl)c3c2O)c(OC)cc1N=Nc1c(S(=O)(=O)O)cc2cc(S(=O)(=O)O)cc(NC(=O)c3cc(Cl)ccc3Cl)c2c1O [Compound 7],170,,,,Positive,99,100,100,41,"Ames Test, specific mutagenic activity ([3]; unit as printed for Compound 7): 0.05 colony no/g g; inhibition at 0.6 µg/mL ([5]; 10% FCS): 81%; inhibition at 0.6 µg/mL ([5]; 50% Human Serum): 0%; inhibition at 1.25 µg/mL ([5]; 50% Human Serum): 0%; inhibition at 2.5 µg/mL ([5]; 50% Human Serum): 48%; inhibition at 5 µg/mL ([5]; 50% Human Serum): 97%; inhibition at 5 µM ([6]; at 5.0 μM): 75%"
COc1cc(N=Nc2c(S(=O)(=O)O)cc3cc(S(=O)(=O)O)cc(NC(=O)c4cc(Cl)cc(Cl)c4)c3c2O)c(OC)cc1N=Nc1c(S(=O)(=O)O)cc2cc(S(=O)(=O)O)cc(NC(=O)Cc3ccccc3)c2c1O [Compound 14],160,50,56,98,Positive,,,,,"Ames Test, specific mutagenic activity [3, 8]: 0.12 colony no/μg"
CCOc1cc(N=Nc2c(S(=O)(=O)O)cc3cc(S(=O)(=O)O)cc(NC(=O)c4cccc(Cl)c4Cl)c3c2O)c(OCC)cc1N=Nc1c(S(=O)(=O)O)cc2cc(S(=O)(=O)O)cc(NC(=O)c3ccc(Cl)cc3Cl)c2c1O [Compound 28],,,,,Negative,100,100,100,,inhibition at 1 µg/mL ([7]; 1.0 μg/ml): 0%; inhibition at 2.5 µg/mL ([7]; 2.5 μg/ml): 67%; inhibition at 5 µg/mL ([7]; 5 μg/ml): 98%
CCCCCCC(=O)Nc1cc(S(=O)(=O)O)cc2cc(S(=O)(=O)O)c(N=Nc3cc(OC)c(N=Nc4c(S(=O)(=O)O)cc5cc(S(=O)(=O)O)cc(NC(=O)Cc6ccccc6)c5c4O)cc3OC)c(O)c12 [Compound 17],130,72,98,100,Negative,,,,,
CCC(C)(C)c1ccc(OCC(=O)Nc2cc(S(=O)(=O)O)cc3cc(S(=O)(=O)O)c(N=Nc4cc(OC)c(N=Nc5c(S(=O)(=O)O)cc6cc(S(=O)(=O)O)cc(NC(C)=O)c6c5O)cc4OC)c(O)c23)c(C(C)(C)CC)c1 [Compound 3],150,,,,Negative,96,100,100,77,
